Measurements: US8461206B2, “Use of at least one (dihydro)jasmonic acid derivative for treating dry skin” (L'Oreal, priority 2003, dated 2013)

What was measured:
Format in all cases: cell-based
[1] = test system: immortalized human sebocytes derived from the SZ95 line; test: lipogenesis in immortalized human sebocytes in culture (Nile Red fluorescence); conditions: 10^-4 M, 0.1% DMSO, treatment for 48 hours, Nile Red 1 μg/ml, cells at confluence, p<0.001
Procedure: Methyl dihydrojasmonate (provided by BEDOUKIAN) was tested on a model of immortalized human sebocytes in culture, derived from the SZ95 line described in Zouboulis, C. C., Seltmann, H., Neitzel, H. & Orfanos, C. E., Establishment and Characterization of an Immortalized Human Sebaceous Gland Cell Line, J. Invest. Dermatol., 113, 1011-1020 (1999).
The test consisted in measuring the amount of lipids produced by the sebocytes of the line (at confluence), in the presence or absence of active agent diluted in DMSO, such that the final amount of DMSO in the culture medium was 0.1% and the amount of methyl dihydrojasmonate was 10^−4 M. After treatment for 48 hours, the adherent cells were treated with Nile Red (1 μg/ml). The lipid content was then quantified by measuring the fluorescence of the dye (two excitation/emission couples: 485-540 nm for the neutral lipids and 540-620 nm for the normeutral lipids). The results were given for the total lipids (combination of the two measurements).
The experiment was carried out in sextuplicate (assayed products and control) in a 96-well plate, and repeated four times.

[2] = test system: immortalized human sebocytes derived from the SZ95 line; test: cell proliferation (MUH) assay; conditions: in parallel to the lipogenesis test
[3] = test system: immortalized human sebocytes derived from the SZ95 line; test: cell viability (LDH) assay; conditions: in parallel to the lipogenesis test

With CCCCCC1C(=O)CCC1CC(=O)OC (stereo not drawn) [methyl dihydrojasmonate] the “increase in amount of neutral lipids synthesized by the sebocytes compared to the untreated control” value [1] was 98%, the “modification of cell proliferation (MUH)” value [2] was “not related to a modification” and the “modification of cell viability (LDH)” value [3] was “not related to a modification”.
